This is an account of results in patent publication US7687496B2, “C7-substituted camptothecin analogs” (priority 2007, dated 2010).

Like-named read-outs stand apart in the source and are kept apart here.

Series [1] has as its system advanced gastrointestinal cancer. To be noted: cited from earlier work.
For series [2] the following is noted: cited from earlier work.
For series [3] the following is noted: doses of 20 to 30 mg/m^2; cited from earlier work.
In series [4] the test system is advanced malignant melanoma. To be noted: fifteen patients, 90-360 mg/m^2 every 2 weeks; cited from earlier work.
The conditions of series [5]: clinical studies in Japan; cited from earlier work.
In series [6] the test system is human plasma proteins. The series can be described thus: Percent of free camptothecin analogs in human plasma (dialysis, HPLC). The settings on record: 100 nM compound concentrations.
Procedure: Stocks of various camptothecin analogs were prepared in DMSO. Phosphate buffer was prepared from analytical grade reagents and regenerated cellulose membranes with 12-14 kD molecular weight cut-off (MWCO) were purchased from Spectrum Laboratories. Samples were incubated 48 hours or longer at room temperature until equilibrium was reached. Experiments to determine the percent of free camptothecin/Karenitecin® analogs were performed in triplicate. Optimum HPLC detection conditions for each camptothecin/Karenitecin® analog were developed using traditional HPLC methods.
In series [7] the test system is A2780/DX5 cells. Nature of the series: Sulforhodamine B (SRB) cytotoxicity assay in A2780/DX5 cells. It is filed as cell-based. The settings on record: for IC50 Ratio: A2780/DX5 versus A2780/WT; for IC50: Homo sapiens, A2780, read-out: A2780/DX5. The procedure: (§1) Each of the testing conditions used in this study in both A2780/WT (wild-type) and A2780/DX5 cells were repeated in five to fifteen experiments that were performed on separate days. Each experiment consisted of one microtiter plate with at least eight individual assays of a given drug treatment condition on the plate. The sulforhodamine B (SRB) assay was used to assess cytotoxicity and absorbance at 570 nm (A570) in order to calculate the percentage of cell control (or percent cell survival) for the various treatment conditions in the plate wells.
(§2) Roswell Park Memorial Institute (RPMI 1640) medium, fetal bovine serum (FBS), and L-glutamine were purchased from Gibco BRL. Drugs were dissolved in sterile dimethylsulfoxide (DMSO), from American Type Culture Collection (ATCC) for stock solutions (2.5 to 5.0 mM). Subsequent dilutions were made using cell culture medium (prior to adding the drug to cells). SRB was purchased from Sigma and dissolved in 1.0 percent acetic acid. Trichloroacetic acid was purchased from VWR International.
(§3) Cells were manipulated in a Class IIA/B3 Biological Safety Cabinet (Forma Scientific) and maintained at 37° C. in a humidified atmosphere containing 5% CO2 in a water-jacketed cell culture incubator (Forma Scientific). Cells were counted using a Coulter-Z1 counter (Beckman-Coulter). Following drug treatment, plates were washed using a Biomek 2000 station (Beckman) and, following exposure to SRB dye, plates were washed using an automated plate washer (Model EL404, Bio-Tek Instruments). Percentage of control was correlated to A570 values and determined using a Model EL800 plate reader (Bio-Tek Instruments).
Population doubling times for the two cell lines used in this study encompassed a total of five cell doublings corresponding to approximately 5 days for A2780/WT and A2780/DX5 cells. A2780/WT and A2780/DX5 cells were cultured in RPMI 1640 medium supplemented with 10% fetal bovine serum and 1 mM of L-glutamine. Both cell lines were maintained as monolayered cultures in T-25 or T-75 flasks and then seeded to microtiter plate wells for experiments described herein. Prior to SRB assays, cell viability was monitored by evaluation of microtiter plate wells. Dead cells detach and float while living cells remain attached to the bottom of the cell well.
The sulforhodamine B (SRB) cytotoxicity assay (see, Skehan P, et al., New colorimetric cytotoxicity assay for anticancer-drug screening. J. Natl. Cancer Inst. 82:1107-1112 (1990)) was used to determine the cytotoxic effects of BNP1350, SN-38, topotecan, 9-NH2-CPT, and 9-NO2-CPT on cell growth in vitro. Briefly, after the medium was aspirated from individual plate wells, trichloroacetic acid (100 μL of 10.0% solution) was added to each well, and the plates were incubated at 4° C. for at least 1 hour. The plates were washed five-times with water using an automated microplate washer (Model EL 404, Bio-Tek Instruments), SRB solution (100 μL of 0.4 grams SRB dissolved in 100 mL 1.0 percent acetic acid) was added, and plates remained at room temperature for 15 minutes. The plates were then washed five-times using acetic acid (1.0%), air dried, and bound dye was solubilized in Tris base (150 μL, 10 mM). Plates were agitated (gently) for 5 minutes and the absorbance values of the SRB dye-protein adduct at a 570 nm wavelength (A570) were determined using an automated microtiter plate reader equipped with an A570 filter (Model EL800, BioTek Instruments).
Background: The SRB assay estimates cell density from bound dye.

Series [8] has as its system A2780/WT (wild-type) cells. The series can be described thus: Sulforhodamine B (SRB) cytotoxicity assay in A2780/WT cells. It is filed as cell-based. The settings on record: Homo sapiens. The procedure: as §1, §2, §3
Population doubling times for the two cell lines used in this study encompassed a total of five cell doublings corresponding to approximately 5 days for A2780/WT and A2780/DX5 cells. A2780/WT and A2780/DX5 cells were cultured in RPMI 1640 medium supplemented with 10% fetal bovine serum and 1 mM of L-glutamine. Both cell lines were maintained as monolayered cultures in T-25 or T-75 flasks and then seeded to microtiter plate wells for experiments described herein. Prior to SRB assays, cell viability was monitored by evaluation of microtiter plate wells. […]
The sulforhodamine B (SRB) cytotoxicity assay (see, Skehan P, et al., New colorimetric cytotoxicity assay for anticancer-drug screening. J. Natl. Cancer Inst. 82:1107-1112 (1990)) was used to determine the cytotoxic effects of BNP1350, SN-38, topotecan, 9-NH2-CPT, and 9-NO2-CPT on cell growth in vitro. […] Plates were agitated (gently) for 5 minutes and the absorbance values of the SRB dye-protein adduct at a 570 nm wavelength (A570) were determined using an automated microtiter plate reader equipped with an A570 filter (Model EL800, BioTek Instruments).

Series [9] relates to panel of over 20 human cancer cell lines.
For series [10] the following is noted: carboxylate form versus lactone form; cited from earlier work.
Setting [11] is: 5-day course (27 patients total), 4 wks.
[12] abbreviates: 5-day course (27 patients total), 8 wks.
The mark [13] stands for this setting: 5-day course (27 patients total), 12 wks.
[14] abbreviates: single-dose method (34 patients total), 3 wks.
[15] abbreviates: single-dose method (34 patients total), 6 wks.
The mark [16] stands for this setting: single-dose method (34 patients total), 9 wks.
Where [17] appears, read: single-dose method (34 patients total), 12 wks.
[18] abbreviates: 5-day course, 15 mg/m^2 × 5, 9 patients treated.
Where [19] appears, read: 5-day course, 17 mg/m^2 × 5, 5 patients treated.
The mark [20] stands for this setting: 5-day course, 20 mg/m^2 × 5, 10 patients treated.
[21] abbreviates: single-dose method, 110 mg/m^2, 2 patients treated.
[22] abbreviates: single-dose method, 120 mg/m^2, 7 patients treated.
The mark [23] stands for this setting: single-dose method, 180 mg/m^2, 9 patients treated.

Consider `CC[C@@]1(O)C(=O)OCc2c1cc1n(c2=O)Cc2cc3ccccc3nc2-1` [CPT sodium], for which the “Objective results: Improved” value is 1 patients in series [1] (setting [11]); 4 patients in series [1] (single-dose method (34 patients total), 3 wks after start of therapy); 2 patients in series [1] (setting [15]); 2 patients in series [1] (setting [16]). In addition, the “Objective results: Stable” value was 12 patients in series [1] (setting [11]); 7 patients in [1] (setting [12]); 6 patients in [1] (setting [13]); 17 patients in series [1] (setting [14]); 11 patients in [1] (setting [15]); 8 patients in [1] (setting [16]). Besides, the “Objective results: Stable” value in series [1] (setting [17]) is recorded as 6 patients. The “Objective results: Worse” value in series [1] (setting [11]) was 14 patients; in [1] (setting [12]) it was 20 patients; in series [1] (setting [13]), 21 patients; in [1] (setting [14]) it was 13 patients; in series [1] (setting [15]) it was 21 patients; in series [1] (setting [16]), 24 patients. For the same molecule, in series [1] (setting [17]), the “Objective results: Worse” value was 28 patients. In addition, in [1] (after 2 months (8 or 9 weeks), 61 patients), the “patients with evidence of partial objective improvement” value is reported as “two of their 61 patients”. Further, in series [2] (5-day course (P < 0.05)), the Cystitis was 48 (P < 0.05) % of 27 Patients. For the same molecule, the “Number of patients with cystitis” value in [2] (5-day course, 11 mg/m^2 × 5, 2 patients treated) was 1 patients; in series [2] (setting [18]) it was 4 patients; in [2] (setting [19]), 2 patients; in series [2] (setting [20]), 6 patients; in [2] (single-dose method, 100 mg/m^2, 6 patients treated) it was 2 patients; in series [2] (setting [21]), 1 patients. The “Number of patients with cystitis” value is 2 patients in [2] (setting [22]) and 3 patients in series [2] (setting [23]). Moreover, the “Number of patients with diarrhea” value is listed as 1 patients in [2] (setting [18]); 4 patients in series [2] (setting [19]); 4 patients in [2] (setting [20]); 1 patients in [2] (5-day course, 22 mg/m^2 × 5, 1 patient treated); 1 patients in [2] (setting [21]); 4 patients in series [2] (setting [22]). Also, in [2] (setting [23]), the “Number of patients with diarrhea” value is recorded as 2 patients. In series [3], the dose-limiting bladder toxicity entry is “three patients”. For the same molecule, the “less pronounced transient tumor regression” value in [4] is “three patients”. In addition, the myelosuppression in [4] is reported as 11 patients. In addition, the “patients with a 50% or greater decrease in tumor diameter” value in [4] was “None of the patients”.
In the case of `CCc1c2c(nc3ccc(OC(=O)N4CCC(N5CCCCC5)CC4)cc13)-c1cc3c(c(=O)n1C2)COC(=O)[C@]3(O)CC` [CPT-11, 7-ethyl-10-[4-(1-piperidino)-1-piperidino]carbonyloxy camptothecin], the “patient deaths directly attributable to drug toxicity” value in series [5] is listed as “approximately 100 patient deaths”.
In the case of `C=C[Si](C)(C)CCc1c2c(nc3ccccc13)-c1cc3c(c(=O)n1C2)COC(=O)[C@]3(O)CC` [Compound 1, 11-(4S)-[2-(dimethylvinylsilanyl)-ethyl]-4-ethyl-4-hydroxy-1,12-dihydro-4H-2-oxa-6,12a-diaza-dibenzo[b,h]fluorene-3,13-dione], the “Percent of Free Camptothecin Analogs in Human Plasma” value in series [6] stood at 2%. Further, in series [7], the “IC50 Ratio” value turned out to be 1.68 and the IC50 came out at 21.8 nM. In series [8] (SRB assay, A2780/WT cells, read-out: A2780/WT), the IC50 worked out at 13 nM.
In the case of `CC[C@@]1(O)C(=O)OCc2c1cc1n(c2=O)Cc2c-1nc1ccccc1c2CC[Si](C)(C)CSC(C)=O` [Compound 9, thioacetic acid S-({[2-(4-ethyl-4-hydroxy-3,13-dioxo-3,4,12,13-tetrahydro-1H-2-oxa-6,12a-diaza-dibenzo[b,h]fluoren-11-yl)-ethyl]-dimethylsilanyl}-methyl)ester], in [7], the “IC50 Ratio” value was found to be 1.94 and the IC50 was 125 nM. In addition, the IC50 in series [8] (A2780, read-out: A2780/WT) was determined as 64.7 nM.
Take `CC[C@@]1(O)C(=O)OCc2c1cc1n(c2=O)Cc2c-1nc1ccccc1c2CC[Si](C)(C)CCCOC(=O)C1CCC1` [Compound 62, Cyclobutanecarboxylic acid 3-{[2-(4-ethyl-4-hydroxy-3,13-dioxo-3,4,12,13-tetrahydro-1H-2-oxa-6,12a-diaza-dibenzo[b,h]fluoren-11-yl)-ethyl]-dimethyl-silanyl}-propyl ester]: in [7], the “IC50 Ratio” value was determined as 3.77. The IC50 in series [7] turned out to be 39.2 nM; in series [8] (A2780, read-out: A2780/WT) it was 10.4 nM.
Turning to `CC[C@@]1(O)C(=O)OCc2c1cc1n(c2=O)Cc2c-1nc1ccccc1c2CC[Si](C)(C)CCCOC(=O)C1=CCNO1` [Compound 64, 2,3-Dihydro-isoxazole-5-carboxylic acid 3-{[2-(4-ethyl-4-hydroxy-3,13-dioxo-3,4,12,13-tetrahydro-1H-2-oxa-6,12a-diaza-dibenzo[b,h]fluoren-11-yl)-ethyl]-dimethyl-silanyl}-propyl ester], in series [7], the “IC50 Ratio” value was determined as 4.27 and the IC50 stood at 59.8 nM. The IC50 in [8] (A2780, read-out: A2780/WT) is 14 nM.
As for `CC[C@@]1(O)C(=O)OCc2c1cc1n(c2=O)Cc2c-1nc1ccccc1c2CC[Si](C)(C)C` [Karenitecin, (4S)-4-ethyl-4-hydroxy-11-[2-(trimethylsilyl)ethyl]-1H-pyrano[3′:4′:6,7]indolizino[1,2-b]quinoline-3,14(4H,12H)-dione], in [9], the “antitumor potency compared with Topotecan and SN-38” value is given as “significantly more potent antitumor agent than either Topotecan™ or SN-38”.
Regarding `CC[C@@](O)(C(=O)O)c1cc2n(c(=O)c1CO)Cc1cc3ccccc3nc1-2` [carboxylate form of CPT], the “reduction of anti-tumor activity” value in series [10] is recorded as “at least 10 fold”.
